Two compounds from PMC8842277, “Highly Antiproliferative Latonduine and Indolo[2,3-c]quinoline Derivatives: Complex Formation with Copper(II) Markedly Changes the Kinase Inhibitory Profile” (Journal of Medicinal Chemistry, 2022) can be followed below.

One test deals with calf thymus DNA (ct-DNA). The test is described as follows: Ethidium bromide displacement and fluorescence lifetime. The class given is binding. The note with it: 10 μM ct-DNA, 5 μM EtBr, 10 mM HEPES, pH 7.40. On the procedure:
The interaction of 4 and 8 and HL^4 and HL^8 with ct-DNA was investigated by spectrofluorometry in ethidium bromide (EtBr) displacement studies. EtBr is a fluorescent probe, and its fluorescence intensity increases upon intercalation into the DNA helix. […] Decrease in the fluorescence may indicate (i) the displacement of EtBr or (ii) (partial) quenching of the fluorescence of the bound probe. In order to separate these processes, fluorescence lifetime measurements were carried out. […] In addition, they provided evidence that the two copper(II) complexes bind to ct-DNA. However, complex 8 replaced EtBr more effectively than 4. […]
Fluorescence measurements were carried out on a Fluoromax (Horiba Jobin Yvon) fluorometer. […] The excitation wavelengths were 510 or 455 nm, and the fluorescence emission was measured in the range 530–750 nm. Corrections for self-absorbance and inner filter effect were done according to our former work.[106] Fluorescence lifetime was measured on the same fluorometer equipped with a DeltaHub time-correlated single photon counting (TCSPC) controller using a NanoLED light source N-455 (Horiba Jobin Yvon). […] The fluorescence intensity decay over time is described by a sum of exponentials, [drawing 3] […] Fractional intensities were calculated as described in our former work.[105] […]

The target in a further test is GSK3β (Homo sapiens, UniProt P49841). The test is described as follows: Kinase panel screen and IC50. It is filed as biochemical. An excerpt: (§1) Figure 7 (see also Table S4) summarizes the results of this assay as a histogram plotting the percentage of the remaining enzyme activity (x-axis) as a function of added lead compound (HL^8: blue trace, 8: red trace) for each of the 50 enzymes assayed (y-axis). […] Thus, the coordination to copper(II) completely changes the kinase inhibition profile of HL^8.
GSK3β, sequence (P49841 whole entry): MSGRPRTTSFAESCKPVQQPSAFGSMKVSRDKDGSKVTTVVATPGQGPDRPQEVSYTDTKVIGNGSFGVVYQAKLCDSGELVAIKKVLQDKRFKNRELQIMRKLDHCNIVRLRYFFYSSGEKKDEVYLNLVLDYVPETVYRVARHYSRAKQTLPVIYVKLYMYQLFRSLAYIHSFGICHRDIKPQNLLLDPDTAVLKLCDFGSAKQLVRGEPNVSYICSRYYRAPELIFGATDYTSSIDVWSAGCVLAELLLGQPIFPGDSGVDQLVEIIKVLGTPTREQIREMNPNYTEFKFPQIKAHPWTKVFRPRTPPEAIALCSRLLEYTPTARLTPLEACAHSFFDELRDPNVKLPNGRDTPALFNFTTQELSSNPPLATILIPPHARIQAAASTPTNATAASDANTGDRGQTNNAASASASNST
(§2) Figure 7 Screening of HL^8 and 8 against 50 enzymes: histogram with % remaining activity on the x-axis plotted against the compound identifier (blue trace: HL^8 and red trace: 8) and enzyme identifier on the […]. The screen was carried out at a compound concentration of 10 μM, an enzyme concentration of 50 nM, and an ATP concentration of 100 μM.
(§3) Both compounds were screened against the respective enzymes, and IC50 values were determined.
(§4) All kinase assays were carried out using Multidrop 384’s at room temperature in a total assay volume of 25.5 μL. To plates containing 0.5 μL of HL^8 and 8, DMSO control or acid blank […], 15 μL of an enzyme mix containing enzyme […], and excess peptide/protein substrate in buffer was added. Compounds were pre-incubated in the presence of the enzyme and peptide/protein substrate for 5 min before initiation of the reaction by addition of 10 μL of ATP (final concentration selected for each kinase at 5, 20, or 50 μM). Assays were carried out for 30 min at room temperature before termination by the addition of 5 μL of orthophosphoric acid. The assay plates were then harvested onto P81 Unifilter Plates by a PerkinElmer Harvester and air dried. The dry Unifilter plates were then sealed on the addition of MicroScint O and were counted in PerkinElmer Topcount scintillation counters.
(§5) IC50 values were determined by the International Centre for Kinase Profiling at the University of Dundee according to standard protocols published elsewhere.[109],[110]

The target of a further test is PKA (Homo sapiens, UniProt P17612). The test is described as follows: Kinase panel screen and IC50. It is filed as biochemical.
Description: as §1, §2, §3, §4, §5

The target of a further test is MSK1 (Homo sapiens, UniProt O75582). The test is described as follows: Kinase panel screen and IC50. The class given is biochemical.
MSK1, sequence (O75582 whole entry): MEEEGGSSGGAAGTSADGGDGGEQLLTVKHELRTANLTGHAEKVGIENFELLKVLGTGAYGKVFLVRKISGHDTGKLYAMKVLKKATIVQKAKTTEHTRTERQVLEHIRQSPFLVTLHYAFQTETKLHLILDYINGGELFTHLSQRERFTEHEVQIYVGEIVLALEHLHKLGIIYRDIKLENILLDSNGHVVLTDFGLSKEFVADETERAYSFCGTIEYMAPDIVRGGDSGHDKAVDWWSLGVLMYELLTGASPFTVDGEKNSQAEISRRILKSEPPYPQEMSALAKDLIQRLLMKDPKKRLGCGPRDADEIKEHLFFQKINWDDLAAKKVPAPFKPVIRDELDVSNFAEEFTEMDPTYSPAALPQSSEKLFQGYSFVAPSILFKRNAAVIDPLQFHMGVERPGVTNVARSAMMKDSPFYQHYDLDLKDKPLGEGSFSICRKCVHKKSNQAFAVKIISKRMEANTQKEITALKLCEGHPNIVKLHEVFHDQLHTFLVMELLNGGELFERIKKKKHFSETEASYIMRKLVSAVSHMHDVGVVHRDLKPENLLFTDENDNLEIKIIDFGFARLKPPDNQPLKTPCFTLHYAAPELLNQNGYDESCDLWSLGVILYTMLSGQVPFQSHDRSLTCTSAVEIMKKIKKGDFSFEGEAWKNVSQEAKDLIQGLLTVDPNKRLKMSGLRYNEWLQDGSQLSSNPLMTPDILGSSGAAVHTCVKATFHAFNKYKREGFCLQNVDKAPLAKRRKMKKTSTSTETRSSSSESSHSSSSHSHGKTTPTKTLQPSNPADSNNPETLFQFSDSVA
Description: as §1, §2, §3, §4, §5

The next test concerns the target CaMK-1 (Homo sapiens, UniProt Q14012). The test is described as follows: Kinase panel screen and IC50. The class given is biochemical.
Description: as §1, §2, §3, §4, §5

The target in a further test is SGK-1 (Homo sapiens, UniProt O00141). The test is described as follows: Kinase panel screen and IC50. The class given is biochemical.
SGK-1, sequence (O00141 whole entry): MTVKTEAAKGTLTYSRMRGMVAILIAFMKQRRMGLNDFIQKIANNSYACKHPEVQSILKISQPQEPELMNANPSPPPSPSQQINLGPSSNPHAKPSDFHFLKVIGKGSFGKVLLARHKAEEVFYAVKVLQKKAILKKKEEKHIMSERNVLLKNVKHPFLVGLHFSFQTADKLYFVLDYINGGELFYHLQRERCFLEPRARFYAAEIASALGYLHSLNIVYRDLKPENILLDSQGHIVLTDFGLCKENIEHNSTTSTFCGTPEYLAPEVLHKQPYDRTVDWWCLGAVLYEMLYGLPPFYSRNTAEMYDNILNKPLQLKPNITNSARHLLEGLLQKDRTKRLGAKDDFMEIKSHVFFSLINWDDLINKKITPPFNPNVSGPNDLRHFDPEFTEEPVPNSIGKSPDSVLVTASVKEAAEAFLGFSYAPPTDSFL
Description: as §1, §2, §3, §4, §5

The next test deals with PIM1 (Homo sapiens, UniProt P11309). The test is described as follows: Kinase panel screen and IC50. It is filed as biochemical.
PIM1, sequence (P11309 whole entry): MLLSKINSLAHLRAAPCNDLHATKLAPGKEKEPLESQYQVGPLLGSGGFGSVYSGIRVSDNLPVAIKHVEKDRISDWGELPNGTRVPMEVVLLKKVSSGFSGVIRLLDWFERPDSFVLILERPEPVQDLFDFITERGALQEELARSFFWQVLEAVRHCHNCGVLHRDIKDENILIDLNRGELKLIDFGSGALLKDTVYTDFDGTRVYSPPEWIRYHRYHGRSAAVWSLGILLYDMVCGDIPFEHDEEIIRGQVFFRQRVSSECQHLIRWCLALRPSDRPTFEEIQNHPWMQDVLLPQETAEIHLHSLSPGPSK
Description: as §1, §2, §3, §4, §5

The test system of a further test is AMPK (hum). The test is described as follows: Kinase panel screen. It is filed as biochemical, human. Conditions: 10 µM compound.
Description: as §1, §2
as §4, with “Assays were carried out for 30 min at room temperature before termination by the addition of 5 μL of orthophosphoric acid. The assay plates were then harvested onto P81 Unifilter Plates by a PerkinElmer Harvester and air dried.” left out

Turning to `CC(=NNC1=NCc2ccccc2-c2c1[nH]c1ccc(Br)cc21)c1ccc(CN2CCOCC2)cn1.[Cl][Cu][Cl]` [compound 4, CuCl2(HL^4)·0.5H2O], in the test on calf thymus DNA (ct-DNA), the “Effect on fluorescence of the EtBr–ct-DNA system” value was “decreased the emission intensity”.

A word on the IC50: it is the concentration needed to halve the response being measured. Regarding `CC(=NNc1nc2ccccc2c2c1[nH]c1ccc(Br)cc12)c1ccc(CN2CCOCC2)cn1.[Cl][Cu][Cl]` [compound 8, CuCl2(HL^8)·H2O], the “% remaining activity” value on GSK3β (GSK3β, 10 µM compound) was 32%; at PKA (PKA, 10 µM compound), 10%; at MSK1 (MSK1, 10 µM compound), 17%; at CaMK-1 (CaMK-1, 10 µM compound), 9%; on SGK-1 (SGK-1, 10 µM compound), 5%; on PIM1 (PIM1, 10 µM compound) it was 72%. In the test on AMPK (hum), the “% remaining activity” value is 91%. For the same compound, the IC50 on GSK3β (read-out: IC50 against GSK3β) was 1640 nM; at PKA (read-out: IC50 against PKA), 6690 nM; at MSK1 (read-out: IC50 against MSK1), 2970 nM; on CaMK-1 (read-out: IC50 against CaMK-1) it was 750 nM; on SGK-1 (read-out: IC50 against SGK-1), 8450 nM. For the same compound, at PIM1, the “IC50 against PIM-1” value is given as “did not register binding”. Moreover, the “Effect on fluorescence of the EtBr–ct-DNA system” value with calf thymus DNA (ct-DNA) is listed as “decreased the emission intensity”.
